How the values were obtained:
[1] = target: human prostanoid EP2 receptor (Homo sapiens (Human), UniProt P43116); test: Human prostanoid EP2 receptor cellular functional assay (cAMP, HTRF); assay type: cell-based; settings: percent of control specific agonist response (10 μM PGE2)
Protocol: Test 1.2: Human Prostanoid EP2 Receptor Cellular Functional Assay
Human CHO cells expressing the recombinant human prostanoid EP2 receptor were suspended in assay medium (HBSS buffer (Invitrogen) containing 20 mM HEPES (pH7.4) and 500 μM isobutyl-methylxanthine IBMX) and plated out to yield approximately 1×10^4 cells/well in a 96-well. Following this, cells were incubated with agonists for 30 min in the presence of the test compounds. For stimulated control measurements, separate assay wells contain 10 μM PGE2 (control specific agonist). All incubations were carried out at 37° C. in a 5% CO2 atmosphere. Following incubation, the amount of cAMP in each well was determined by HTRF method. The cells are lysed and the fluorescence acceptor (D2-labeled cAMP) and fluorescence donor (anti-cAMP antibody labeled with europium cryptate) are added. After 60 min at room temperature, the fluorescence transfer is measured at λex=337 nm and λem=620 and 665 nm using a microplate reader (Rubystar, BMG).
The cAMP concentration is determined by dividing the signal measured at 665 nm by that measured at 620 nm (ratio).
The standard reference agonist PGE2 was tested at several concentrations to generate a concentration-response curve to determined EC50.
Analysis and Expression of Results […]

[2] = test system: laser-induced glaucomatous monkeys; test: Laser-induced hypertensive cynomolgus monkey, intraocular pressure; assay type: in vivo; settings: 0.01% topically to glaucomatous eye once daily for 5 days
Protocol: Laser-Induced Hypertensive Cynomolgus Monkey
Ten adult female cynomolgus monkeys, each weighing 3-5 kg, in which glaucoma had been induced unilaterally by diode laser photocoagulation of the mid-trabecular meshwork, were used in this study.
Intraocular pressure (IOP) was measured at 0 hr (before drug administration) and then hourly until 6 hrs after drug administration on one baseline day, one vehicle-treatment day, and treatment days 1, 3, and 5 with 0.01% of compound II(d).
Compound II(d) was tested in two groups of 4 monkeys for a total of 8 monkeys. Following one baseline day (untreated) and one vehicle-treatment day (50 μl (25 μl×2), drop of vehicle to the glaucomatous eye at 9:30 (a 50 μl drop (25 μl×2) of compound (II(d)) were topically applied to the glaucomatous eye only once daily at 9:30 am for 5 consecutive days.
Slit-lamp examination for the detection of aqueous humor flare and cells was performed in a dark room before drug administration and at 1, 3 and 5 hrs after dosing on baseline day and at the same times on treatment days 1, 3 and 5.
Two-tailed paired and unpaired t test and the ANOVA test were used for statistical analysis.

human prostanoid EP2 receptor, sequence (P43116 whole entry): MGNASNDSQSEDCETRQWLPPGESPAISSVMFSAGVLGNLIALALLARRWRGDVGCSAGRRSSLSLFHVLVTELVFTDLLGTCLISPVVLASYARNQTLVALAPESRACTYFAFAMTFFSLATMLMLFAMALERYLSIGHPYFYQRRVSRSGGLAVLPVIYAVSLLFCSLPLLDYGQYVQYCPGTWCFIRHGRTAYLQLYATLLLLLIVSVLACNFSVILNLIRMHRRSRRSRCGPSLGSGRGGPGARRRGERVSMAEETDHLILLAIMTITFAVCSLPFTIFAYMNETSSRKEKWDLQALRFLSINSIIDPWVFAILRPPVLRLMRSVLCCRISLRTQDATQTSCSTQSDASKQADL

Compound	In vitro functional assay % response [1]	overall IOP reduction [2]
C[C@@H](Nc1c(F)ccc(OCC(=O)O)c1F)c1cc(-c2cccc(F)c2)ccc1F (single isomer, unassigned) [I(as) (+isomer)]	124%	
CC(C)OC(=O)COc1ccc(F)c(NCc2cc(-c3cccc(F)c3)ccc2F)c1F [II(d), Isopropyl 2-[2,4-difluoro-3-[[2-fluoro-5-(3-fluorophenyl)phenyl]methylamino]phenoxy]acetate]		22%

— patent US9624159B2, “Aniline derivatives, their preparation and their therapeutic application” (SANOFI, priority 2011, dated 2017)
